Reference: ChEMBL document CHEMBL1128407 (J Med Chem, 1995)

How the values were obtained:
HCT-116 = assay: Compound is evaluated for an in vitro cytotoxicity assay against HCT116 tumor cell lines; type: functional, cell-based; settings: Homo sapiens
[1] = target: Tubulin alpha chain (Sus scrofa) (UniProt P02550); assay: Compound is evaluated for tubulin polymerization (ratio of compound relative to paclitaxel (EC0.01).
Chain of Tubulin alpha chain (Sus scrofa) (P02550 whole entry, looked up): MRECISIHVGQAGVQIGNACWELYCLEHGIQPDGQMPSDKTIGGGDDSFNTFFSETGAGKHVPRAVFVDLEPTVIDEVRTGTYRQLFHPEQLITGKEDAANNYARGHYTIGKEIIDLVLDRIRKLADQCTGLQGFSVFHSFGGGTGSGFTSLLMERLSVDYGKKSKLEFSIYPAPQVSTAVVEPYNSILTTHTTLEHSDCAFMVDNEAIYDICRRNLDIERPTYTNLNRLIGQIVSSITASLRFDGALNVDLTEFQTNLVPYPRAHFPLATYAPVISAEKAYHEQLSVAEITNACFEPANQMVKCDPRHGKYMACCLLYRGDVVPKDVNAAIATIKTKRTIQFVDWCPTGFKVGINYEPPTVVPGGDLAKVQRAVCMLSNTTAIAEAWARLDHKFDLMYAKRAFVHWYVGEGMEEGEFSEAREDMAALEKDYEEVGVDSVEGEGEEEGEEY

CC(=O)O[C@H]1C(=O)[C@]2(C)[C@@H](O)CC3OC[C@@]3(OC(C)=O)[C@H]2[C@H](OC(=O)c2ccccc2)[C@]2(O)C[C@H](OC(=O)[C@H](O)[C@@H](NC(=O)OC(C)(C)C)c3ccccc3)C(C)=C1C2(C)C (stereo not given in full)
IC50 (HCT-116): 0.55 nM
Ratio [1]: 0.55

CC(=O)O[C@H]1C(=O)[C@]2(C)[C@@H](O)CC3OC[C@@]3(OC(=O)N3CC3)[C@H]2[C@H](OC(=O)c2ccccc2)[C@]2(O)C[C@H](OC(=O)[C@H](O)[C@@H](NC(=O)c3ccccc3)c3ccco3)C(C)=C1C2(C)C (stereo not given in full)
IC50 (HCT-116): 6.9 nM
Ratio [1]: 0.7

CC(=O)O[C@H]1C(=O)[C@]2(C)[C@@H](O)CC3OC[C@@]3(OC(=O)C3CC3)[C@H]2[C@H](OC(=O)c2ccccc2)[C@]2(O)C[C@H](OC(=O)[C@H](O)[C@@H](NC(=O)c3ccccc3)c3ccccc3)C(C)=C1C2(C)C (stereo not given in full)
IC50 (HCT-116): 1 nM

CC(=O)O[C@H]1C(=O)[C@]2(C)[C@@H](O)CC3OC[C@@]3(OC(C)=O)[C@H]2[C@H](OC(=O)c2ccccc2)[C@]2(O)C[C@H](OC(=O)[C@H](O)[C@@H](NC(=O)c3ccccc3)c3ccoc3)C(C)=C1C2(C)C (stereo not given in full)
IC50 (HCT-116): 0.74 nM
Ratio [1]: 0.85

CC(=O)O[C@H]1C(=O)[C@]2(C)[C@@H](O)CC3OC[C@@]3(OC(=O)N3CC3)[C@H]2[C@H](OC(=O)c2ccccc2)[C@]2(O)C[C@H](OC(=O)[C@H](O)[C@@H](NC(=O)OC(C)(C)C)c3ccco3)C(C)=C1C2(C)C (stereo not given in full)
IC50 (HCT-116): 2 nM
Ratio [1]: 0.8

CC(=O)O[C@H]1C(=O)[C@@]2(C)[C@H]([C@H](OC(=O)c3ccccc3)[C@]3(O)C[C@H](OC(=O)[C@H](O)[C@@H](NC(=O)c4ccccc4)c4ccccc4)C(C)=C1C3(C)C)[C@]1(OC(=O)N3CC3)CO[C@@H]1C[C@@H]2O
IC50 (HCT-116): 15.6 nM
